Measured values from article PMC10402865, “Fragment-based design, synthesis and biological evaluation of theophylline derivatives as ATAD2 inhibitors in BT-549 cells” (Journal of Enzyme Inhibition and Medicinal Chemistry, 2023).

Columns and labels:
ATAD2 = settings: cited from earlier work
BT-549 cells [1] = test: Cell viability (MTT) assay, anti-proliferative activity; format: cell-based; settings: for IC50: Homo sapiens, MTT, 24 h, mean ± SD
Procedure: BT-549 cells were seeded at a density of 5 × 10^4 cells/ml in a 96-well plate. Following a 24-h incubation period, the cells were exposed to various concentrations of different compounds for the specified durations. Cell viability was evaluated using an MTT assay.

[2] = tested on: ATAD2, c-Myc, and p-c-Myc^Ser62 in BT-549 cells; test: Western blot of ATAD2, c-Myc and p-c-Myc Ser62; format: cell-based; settings: BT-549 cells, 5, 10, 20 μM, 48h
Procedure: (§1) Cells were exposed to AM879, BAY-850 or compound 19f for the specified time intervals. Both adherent and floating cells were harvested and subsequently resuspended in a lysis buffer, followed by incubation at 4 °C for 1 h. Following centrifugation at 12,000 rpm for 20 min, the protein content of the supernatant was quantified using the BCA protein assay. Then protein were separated by 8–15% SDS-PAGE and transferred onto PVDF membranes. The membranes were blocked with blocking buffer and subjected to primary antibody incubation, followed by incubation with HRP-conjugated secondary antibody. Protein detection was achieved using ECL as the HRP substrate.

[3] = biological target: T1, ATAD2 recombinant bromodomain protein (Homo sapiens, UniProt Q6PL18); test: ATAD2 enzymatic assay by TR-FRET technology; format: binding; settings: TR-FRET; for IC50: mean ± SD, read-out: Kinase inhibitory activity (IC50, μM) ATAD2
T1 sequence (Q6PL18 980-1092 limits assumed): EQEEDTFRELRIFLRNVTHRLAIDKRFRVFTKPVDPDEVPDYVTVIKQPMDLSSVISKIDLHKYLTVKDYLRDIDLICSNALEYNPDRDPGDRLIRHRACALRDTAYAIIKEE
Procedure: The assay was performed by TR-FRET technology using recombinant bromodomain and BET Ligand[8]. The compounds were diluted with indicated folds in 5% DMSO in reaction buffer and 2 µl of the dilution was added to a 20 µl reaction so that the final concentration of DMSO is 0.5% in all of the reactions. The 20 µl reaction mixture consists of the ATAD2 recombinant bromodomain protein, the indicated amount of the inhibitor, ligand, and the reactive dyes. The reaction mixture was incubated for 3 h before reading the TR-FRET signal. Fluorescence signals for both the donor and acceptor dyes were measured using a Tecan Infinite M1000 plate reader. Binding experiments were performed in duplicate at each concentration and the data were analysed using GraphPad Prism.

MDA-MB-231 cells [4] = tested on: MDA-MB-231 cells; design: method as in PMID 32174193; settings: read-out: antiproliferative activity IC50 in MDA-MB-231 cells; cited from earlier work
[5] = tested on: p-c-Myc^Ser62 in BT-549 cells; test: Immunofluorescence of p-c-Myc Ser62; format: cell-based; settings: 48h
Procedure: To prevent non-specific antibody binding, BT-549 cells were treated with a blocking buffer (PBS +1.5% goat serum) prior to immunofluorescence staining. The cells were subsequently incubated with a p-c-Myc^Ser62 antibody (1:200) diluted in blocking buffer and allowed to incubate overnight at 4 °C. Afterward, the cells were further incubated with fluorescent-labelled secondary antibodies for 1 h at room temperature.

BT-549 cells [6] = test: Colony formation assay; format: cell-based
BT-549 cells [7] = test: Wound healing assay; format: cell-based; settings: BT-549 cells, 2.5, 5, 10, 20 μM, 48h
[8] = tested on: MMP-2 and E-cadherin in BT-549 cells; test: Western blot of migration markers; format: cell-based; settings: BT-549 cells, 5, 10, 20 μM, 48h
Procedure: as §1

BT-549 cells [9] = test: EdU-488 newly synthesised DNA assay; format: cell-based; settings: BT-549 cells, 5, 10, 20 μM, 48h
BT-549 cells [10] = test: Transwell migration assay; format: cell-based; settings: BT-549 cells, 5, 10, 20 μM, 48h
Procedure: BT-549 cells were seeded into the upper chamber of a Transwell insert at a density of 15,000 cells per well. The cells were treated with either DMSO or compound 19f for 48 h, after which non-migrated cells were removed from the upper surface, while the migrated cells were stained with crystal violet. Then, the cells were washed with PBS and imaged using a phase-contrast microscope.

BT-549 cells [11] = test: 3D cell culture, cell sphere diameter; format: cell-based
Procedure: For 3D cell culture, 10,000 cells were placed in 96-well spherical plates for 24h and treated with different concentrations of compound 19f, […] or AM879. The diameter of the cell balls was measured by photographing.

[12] = tested on: Bax, Bcl-2, Caspase-3, Caspase-8, Caspase-9, and PARP in BT-549 cells; test: Western blot of apoptotic marker proteins; format: cell-based; settings: BT-549 cells, 5, 10, 20 μM, 48h
Procedure: as §1

BT-549 cells [13] = test: Apoptosis assay, Annexin-V/PI double staining; format: cell-based; settings: BT-549 cells, 5, 10, 20 μM, 48h
Source text: To assess apoptosis, BT-549 cells were exposed to varying concentrations of compound 19f, and apoptosis ratios were quantified via Annexin-V/PI double staining.

MCF-10A cells = test: Cell viability (Figure S1), normal breast cells; format: cell-based
MDA-MB-231 cells [14] = test: Cell viability (Figure S1); format: cell-based

Row | SMILES | IC50 (ATAD2) | IC50 (BT-549 cells [1]) | expression levels of c-Myc and p-c-Myc Ser62 (western blot) [2] | expression of ATAD2 (western blot) [2] | IC50 [3] | melting point | further results
1 | CC1=C(C#N)c2nc(N)c(C#N)cc2/C1=C\c1ccc(-c2cc(C(=O)O)ccc2Cl)o1 [AM879] | 3.5 µM | 4.79 ± 0.52 µM | inhibited the expression levels of c-Myc and p-c-Myc^Ser62 in a dose-dependent manner | no significant effect on the expression of ATAD2 | 3.49 ± 0.77 µM |  | IC50 (MDA-MB-231 cells [4]): 2.43 µM
2 | Cc1nnc2c(NC3CCN(CC(C)(C)F)CC3)cc(C(=O)N3C4Cc5ccccc5C3C(C(C)C)NC4=O)nn12 (centres unmarked) [AZ4347] | 0.02 µM |  |  |  |  |  | 
3 | COc1cc(Cl)c(C(=O)N[C@@H](CN[C@H]2CC[C@@H](N)CC2)Cc2ccc(C#N)cc2)cc1-c1ccc(CN[C@H](C)c2ccc(C)cc2)o1 [BAY-850] | 0.02 µM | 3.45 ± 0.59 µM | reduced c-Myc expression and ser62 the phosphorylation at ser62 in a dose-dependent manner | inhibited the expression of ATAD2 |  |  | 
4 | C[C@H]1CCN(S(=O)(=O)c2cc(NC(=O)CN3C(=O)N[C@@](C)(C4CC4)C3=O)ccc2Br)C1 [Compound 2] | 0.063 µM |  |  |  |  |  | 
5 | COc1ccc(C(=O)NC2CCCC2)cc1NC(=O)Cn1cnc2c(=O)n(C)c(=O)n(C)c21 [Compound 19f, N-cyclopentyl-3–(2-(1,3-dimethyl-2,6-dioxo-1,2,3,6-tetrahydro-9H-purin-9-yl)acetamido)-4-methoxybenzamide] |  | 5.43 ± 0.71 µM | inhibited the expression levels of c-Myc and p-c-Myc^Ser62 in a dose-dependent manner | no significant effect on the expression of ATAD2 | 0.27 ± 0.05 µM |  | p-c-Myc Ser62 level compared with AM879 and BAY-850 ([5]; BT-549 cells, 10 μM): more significant impact on p-c-Myc^Ser62 level than AM879, and a similar result to the BAY-850; fluorescence intensity of p-c-Myc Ser62 ([5]; BT-549 cells, 5, 10, 20 μM): reduce the fluorescence intensity of p-c-Myc^Ser62 in a dose-dependent manner; colony formation ability (BT-549 cells [6]): inhibit the colony formation ability of BT-549 cells in a concentration-dependent manner; relative wound area (BT-549 cells [7]): increased the relative wound area in a dose-dependent manner; expression of E-cadherin and MMP-2 [8]: up-regulated the expression of E-cadherin and down-regulated MMP-2; anti-proliferative activity in BT-549 cells, in words (BT-549 cells [1]): anti-proliferative activity comparable to BAY-850 and AM879; antiproliferative activity relative to the positive drug BAY-850 (BT-549 cells [1]): about one-fold weaker; fluorescence intensity of EdU-488 (BT-549 cells [9]): reduce the fluorescence intensity of EdU-488 in a dose-dependent manner; migrated cell number (BT-549 cells [10]): decreased the migrated cell number in a dose-dependent manner; diameter of 3D tumour cell spheres (BT-549 cells [11]): dose-dependently reduce the diameter of the 3D tumour cell spheres; cleavage of caspase-8 [12]: the cleavage of caspase-8 was not changed significantly; expression of Bax, cleavage of caspase-3, caspase-9 and PARP [12]: promoted the expression of Bax, the cleavage of caspase-3, caspase-9 and PARP; expression of Bcl-2 [12]: the expression of Bcl-2 was significantly decreased; apoptosis induction, in words (BT-549 cells [13]): induce obvious apoptosis in a dose-dependent manner; ATAD2 inhibitory activity, in words [3]: weaker ATAD2 inhibitory activity compared with BAY-850, but a stronger ATAD2 inhibitory activity than AM879; cytotoxicity to normal breast MCF-10A cells (MCF-10A cells): did not show obvious cytotoxicity; anti-proliferative activity in MDA-MB-231 cells, in words (MDA-MB-231 cells [14]): good anti-proliferative activity
6 | Cn1c(=O)c2ncn(CC(=O)Nc3cccc(C(=O)NC4CCCCCC4)c3)c2n(C)c1=O [Compound 19j, N-cycloheptyl-3–(2-(1,3-dimethyl-2,6-dioxo-1,2,3,6-tetrahydro-9H-purin-9-yl)acetamido)benzamide] |  | > 30 µM |  |  | > 25 µM | 189 to 190 °C | 
7 | Cc1ccc(C(=O)NC2CCCCCC2)cc1NC(=O)Cn1cnc2c(=O)n(C)c(=O)n(C)c21 [Compound 19k, N-cycloheptyl-3–(2-(1,3-dimethyl-2,6-dioxo-1,2,3,6-tetrahydro-9H-purin-9-yl)acetamido)-4-methylbenzamide] |  | > 30 µM |  |  | > 25 µM | 194 to 196 °C | 
8 | COc1ccc(C(=O)NC2CCCCCC2)cc1NC(=O)Cn1cnc2c(=O)n(C)c(=O)n(C)c21 [Compound 19l, N-cycloheptyl-3–(2-(1,3-dimethyl-2,6-dioxo-1,2,3,6-tetrahydro-9H-purin-9-yl)acetamido)-4-methoxybenzamide] |  | > 30 µM |  |  | > 25 µM | 197 to 198 °C | 
9 | CC(C)N1CCc2c(nnn2CC(=O)Nc2ccc(Br)c(S(=O)(=O)N3CC[C@H](C)C3)c2)C1 [GSK232] | 0.032 µM |  |  |  |  |  | 
10 | CO[C@H]1CNC[C@@H](OCC2CCC(F)(F)CC2)[C@@H]1Nc1ncc(-c2cncc(C)c2)c2cc(C)c(=O)[nH]c12 [GSK8814] | 0.059 µM |  |  |  |  |  | 
